Results reported in PMC6929706, “In vivo alpha-V beta-3 integrin expression in human aortic atherosclerosis” (Heart, 2019).
Where two headings read alike, the source gives them in different places.

Key:
[1] = target: αvβ3 integrin in thoracic aortic atheroma (Homo sapiens, UniProt P05106+P06756)
Description: (§1) All patients in the imaging cohort underwent PET-CT imaging of the thorax with a hybrid scanner (Biograph mCT, Siemens Medical Systems, Erlangen, Germany) at the Clinical Research Imaging Centre, University of Edinburgh. Subjects were administered a target dose of 230 MBq 18F-fluciclatide. An attenuation correction CT scan (non-enhanced 120 kV and 50 mA, 3 mm slices) was performed prior to PET acquisition. To define tracer pharmacodynamics and the optimum timing of scanning, dynamic PET imaging of the thorax was performed in the initial 20 patients in three-dimensional (3-D) mode using a single bed position for 70 min.
Kinetic analysis was performed on the dynamic PET studies to investigate the pharmacodynamics of 18F-fluciclatide uptake within atheroma. […] In all patients, static electrocardiogram-gated PET images were reconstructed in diastole (40–70 min postinjection, 50%–75% of the R-R interval, Ultra-HD, 2 iterations, 21 subsets, zoom ×2, 200 pixels). […] PET images were fused with the attenuation correction CT, and regions of interest drawn around the thoracic aorta on serial axial slices just beyond the discernible adventitial border. Aortic uptake was assessed in three regions: the ascending thoracic aorta (from the level of mid-right pulmonary artery up to the last slice where the aorta maintained its circular cross-sectional appearance), the descending thoracic aorta (the region extending from the tip of the diaphragm up to the last circular slice) and the aortic arch (the region of the aorta connecting the ascending and descending aorta). Within these regions, mean and maximum tracer activities were measured using standard uptake values (SUV; the decay corrected tissue concentration of the tracer divided by the injected dose per body weight, kBq/mL) and corrected for mean radiotracer blood pool activity to provide a mean of the TBRmax (mean TBRmax).[5 19 20] […] In a substudy of 10 randomly selected subjects, images were assessed independently by two experienced observers and the interobserver reproducibility of 18F-fluciclatide SUV and TBR measurements assessed.
Continuous data were tested for normality visually and with the D’Agostino-Pearson omnibus test. Continuous data were presented as median (IQR) and compared using Pearson’s or Spearman’s correlation or Wilcoxon signed-rank test as appropriate.

[2] = set-up: species or system human; conditions: in vivo
Description: A total of 46 subjects underwent PET imaging with CT angiography (age 66±10 years, 74% male; table 1) following injection of 229 (IQR 217–237) […] 18F-fluciclatide. Of the 46 subjects recruited, 19 had suffered a recent MI (unstable cohort), and 27 had imaging evidence of aortic atherosclerosis on CT but no recent cardiovascular events (stable cohort: 6 with stable angina and 21 with subclinical disease who were asymptomatic with no prior cardiovascular events). […] The groups were well matched for gender (p=0.97) and body mass index (p=0.39), and were both characterised by high prevalence of atherosclerotic risk factors, with more smokers in the unstable group (p<0.001) and more patients with hypertension in the stable group (p=0.02).

αvβ3 integrin receptors = target: T1, αvβ3 integrin receptors (Homo sapiens, UniProt P05106+P06756); test: 18F-fluciclatide autoradiography of carotid endarterectomy sections; assay type: binding
T1 construct: from tissue; host or cells: human carotid endarterectomy specimens (frozen sections)
Description: Carotid endarterectomy specimens (online supplementary data) were fresh frozen and sectioned in cryosection medium. Both atheromatous and non-atheromatous segments were fixed, stained with H&E and examined by immunohistochemistry for smooth muscle actin, CD31, CD68 and αvβ3 integrin receptor expression before digital image capture (Axioscan .Z1, Zeiss, UK). Image analysis was performed on ImageJ32 software (National Institutes of Health, Bethesda, Maryland, USA). Staining was expressed as a percentage of the total plaque area and with an object size set threshold applied at 20×10 pixels, to limit counting to cell-sized objects. The density of cell staining in the endarterectomy tissue was expressed as cells per mm^2.[18]
Autoradiography was performed to identify the precise localisation of 18F-fluciclatide binding in atherosclerotic tissue. Carotid sections were bathed in a solution of 18F-fluciclatide (1 kBq/mL) for 60 min and rinsed with phosphate buffer solution. To rule out non-specific radiotracer uptake, an un-labelled highly concentrated solution of fluciclatide was added to bind competitively with the αvβ3 integrin receptors. 18F-Fluciclatide binding was imaged using a FujiFilm FLA-5100 Fluorescent Image Analyser (Raytek Scientific, Sheffield, UK). […]
antibody, clone LM609 (Millipore) for 30 min at room temperature. After washing, the sections were incubated with Envision Flex (DAKO, K5007) for 30 min at room temperature, followed by incubation with diaminobenzamine (Sigma) for 10 min. The slides were finally counterstained with hematoxylin and digitally imaged (Axioscan.Z1, Zeiss, UK).
Clinical PET systems have limited resolution. To gain more detailed information about the precise localization of 18F-fluciclatide binding in atherosclerotic tissue, we undertook autoradiography. The 20 μm frozen sections adjacent to those used for immunohistochemical analysis were warmed to room-temperature and bathed in a solution of 18F-fluciclatide at a concentration close to in vivo imaging concentrations (1 kBq/mL) for 60 minutes and then rinsed with phosphate buffer solution. An unlabeled highly concentrated solution of fluciclatide was added to selected slides in order to competitively bind to αvβ3 to assess for non-specific tracer uptake. A freshly blanked phosphor screen was then placed over the slides and an overnight exposure undertaken. The screen was read using a FujiFilm FLA-5100 Fluorescent Image Analyser (Raytek Scientific Limited, Sheffield, UK). Sections were then manually registered and examined for co-localization with histological markers of atherosclerotic disease

[3] = target: aortic atheroma (αvβ3 integrin) (Homo sapiens, UniProt P05106+P06756)
Chain of aortic atheroma (αvβ3 integrin) (P06756 31-889 limits assumed): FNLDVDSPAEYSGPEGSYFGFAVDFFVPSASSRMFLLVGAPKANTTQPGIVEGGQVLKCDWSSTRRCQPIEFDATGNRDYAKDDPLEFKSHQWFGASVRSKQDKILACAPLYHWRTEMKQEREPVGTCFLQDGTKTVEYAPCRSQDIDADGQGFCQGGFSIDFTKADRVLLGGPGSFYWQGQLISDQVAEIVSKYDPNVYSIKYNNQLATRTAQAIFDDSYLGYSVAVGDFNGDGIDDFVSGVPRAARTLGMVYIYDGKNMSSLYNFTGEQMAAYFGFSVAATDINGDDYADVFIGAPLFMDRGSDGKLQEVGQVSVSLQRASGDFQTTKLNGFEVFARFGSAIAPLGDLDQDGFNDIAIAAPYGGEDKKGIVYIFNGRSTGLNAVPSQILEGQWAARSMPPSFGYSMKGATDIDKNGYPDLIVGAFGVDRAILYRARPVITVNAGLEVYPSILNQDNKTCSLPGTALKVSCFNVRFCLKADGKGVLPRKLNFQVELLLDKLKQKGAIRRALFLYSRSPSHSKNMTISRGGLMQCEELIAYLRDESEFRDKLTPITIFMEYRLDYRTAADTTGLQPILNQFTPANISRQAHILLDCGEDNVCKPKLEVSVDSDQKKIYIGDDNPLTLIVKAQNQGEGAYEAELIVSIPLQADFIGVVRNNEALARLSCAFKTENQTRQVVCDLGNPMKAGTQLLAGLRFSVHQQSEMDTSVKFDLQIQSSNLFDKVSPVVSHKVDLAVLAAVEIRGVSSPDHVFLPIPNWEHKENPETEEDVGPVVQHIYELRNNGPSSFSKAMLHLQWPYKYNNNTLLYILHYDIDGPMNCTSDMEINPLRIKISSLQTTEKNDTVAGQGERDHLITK
Chain of aortic atheroma (αvβ3 integrin) (P06756 891-1048 partner limits assumed): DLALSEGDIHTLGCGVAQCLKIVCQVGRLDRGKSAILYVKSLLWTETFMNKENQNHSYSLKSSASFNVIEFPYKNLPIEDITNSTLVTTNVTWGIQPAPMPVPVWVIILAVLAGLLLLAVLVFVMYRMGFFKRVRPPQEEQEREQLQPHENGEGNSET
Chain of aortic atheroma (αvβ3 integrin) (P05106 27-788): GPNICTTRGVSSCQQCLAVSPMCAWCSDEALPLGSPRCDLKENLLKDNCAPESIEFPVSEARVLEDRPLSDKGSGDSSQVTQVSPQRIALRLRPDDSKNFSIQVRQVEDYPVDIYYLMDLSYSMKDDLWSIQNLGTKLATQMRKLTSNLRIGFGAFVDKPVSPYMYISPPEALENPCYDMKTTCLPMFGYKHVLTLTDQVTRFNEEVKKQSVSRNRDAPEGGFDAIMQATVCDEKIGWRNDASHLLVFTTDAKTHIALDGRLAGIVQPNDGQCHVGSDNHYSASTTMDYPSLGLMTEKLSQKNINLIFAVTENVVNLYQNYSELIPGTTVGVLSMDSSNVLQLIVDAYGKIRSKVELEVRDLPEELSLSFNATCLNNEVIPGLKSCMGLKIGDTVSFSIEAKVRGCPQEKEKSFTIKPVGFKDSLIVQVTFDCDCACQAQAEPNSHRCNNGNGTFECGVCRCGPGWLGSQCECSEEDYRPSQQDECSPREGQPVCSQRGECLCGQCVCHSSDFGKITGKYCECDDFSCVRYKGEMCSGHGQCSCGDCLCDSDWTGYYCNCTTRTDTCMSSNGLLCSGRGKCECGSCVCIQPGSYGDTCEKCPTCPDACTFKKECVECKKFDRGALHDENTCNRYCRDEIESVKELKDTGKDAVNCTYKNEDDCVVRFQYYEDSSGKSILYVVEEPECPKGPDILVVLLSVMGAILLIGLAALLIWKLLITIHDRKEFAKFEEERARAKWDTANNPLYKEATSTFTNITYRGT
Description: as §1
Kinetic analysis was performed on the dynamic PET studies to investigate the pharmacodynamics of 18F-fluciclatide uptake within atheroma. […] In all patients, static electrocardiogram-gated PET images were reconstructed in diastole (40–70 min postinjection, 50%–75% of the R-R interval, Ultra-HD, 2 iterations, 21 subsets, zoom ×2, 200 pixels). Images were analysed by experienced observers blinded to the demographic data (WJ, AV) using an OsiriX workstation (OsiriX V.6.0 64-bit; OsiriX Imaging Software, Geneva, Switzerland). PET images were fused with the attenuation correction CT, and regions of interest drawn around the thoracic aorta on serial axial slices just beyond the discernible adventitial border. Aortic uptake was assessed in three regions: the ascending thoracic aorta (from the level of mid-right pulmonary artery up to the last slice where the aorta maintained its circular cross-sectional appearance), the descending thoracic aorta (the region extending from the tip of the diaphragm up to the last circular slice) and the aortic arch (the region of the aorta connecting the ascending and descending aorta). Within these regions, mean and maximum tracer activities were measured using standard uptake values (SUV; the decay corrected tissue concentration of the tracer divided by the injected dose per body weight, kBq/mL) and corrected for mean radiotracer blood pool activity to provide a mean of the TBRmax (mean TBRmax).[5 19 20] […]

T1 sequence (P06756 31-889 limits assumed): as the sequence (P06756 31-889 limits assumed) above
T1 sequence (P06756 891-1048 partner limits assumed): as the sequence (P06756 891-1048 partner limits assumed) above
T1 sequence (P05106 27-788): as the sequence (P05106 27-788) above
Chain of αvβ3 integrin in thoracic aortic atheroma (P06756 31-889 limits assumed): as the sequence (P06756 31-889 limits assumed) above
Chain of αvβ3 integrin in thoracic aortic atheroma (P06756 891-1048 partner limits assumed): as the sequence (P06756 891-1048 partner limits assumed) above
Chain of αvβ3 integrin in thoracic aortic atheroma (P05106 27-788): as the sequence (P05106 27-788) above

18F-fluciclatide
TBRmax range in aortic atheroma ([1]; 40–70 min postinjection): 1.08–1.68 | Total aortic uptake (mean TBRmax), current smokers ([1]; All patients, median (IQR)): 1.32 | Total aortic uptake (mean TBRmax), not current smokers ([1]; All patients, median (IQR)): 1.29 (1.19–1.39) | Total aortic uptake (mean TBRmax), with established ischaemic heart disease ([1]; All patients, median (IQR)): 1.34 (1.22–1.42) | Total aortic uptake (mean TBRmax), with hypercholesterolaemia ([1]; All patients, median (IQR)): 1.34 (1.21–1.42) | Total aortic uptake (mean TBRmax), with hypertension ([1]; All patients, median (IQR)): 1.33 (1.19–1.39) | Total aortic uptake (mean TBRmax), without diabetes mellitus ([1]; All patients, median (IQR)): 1.29 (1.19–1.38) | Total aortic uptake (mean TBRmax), without established ischaemic heart disease ([1]; All patients, median (IQR)): 1.25 (1.19–1.35) | Total aortic uptake (mean TBRmax), without hypercholesterolaemia ([1]; All patients, median (IQR)): 1.27 (1.19–1.34) | Total aortic uptake (mean TBRmax), without hypertension ([1]; All patients, median (IQR)): 1.29 (1.20–1.40) | Total aortic uptake (mean TBRmax), with diabetes mellitus ([1]; Stable cohort, median (IQR)): 1.37 (1.28–1.58) | Total aortic uptake (mean TBRmax), with established ischaemic heart disease ([1]; Stable cohort, median (IQR)): 1.37 (1.37–1.42) | Total aortic uptake (mean TBRmax), with hypercholesterolaemia ([1]; Stable cohort, median (IQR)): 1.36 | Total aortic uptake (mean TBRmax), with hypertension ([1]; Stable cohort, median (IQR)): 1.27 (1.21–1.38) | Total aortic uptake (mean TBRmax), without diabetes mellitus ([1]; Stable cohort, median (IQR)): 1.29 (1.19–1.37) | Total aortic uptake (mean TBRmax), without hypertension ([1]; Stable cohort, median (IQR)): 1.33 (1.19–1.38) | Aortic Arch (mean TBRmax) ([1]; Unstable atherosclerosis (n=19, recent MI), median (IQR)): 1.29 | TBRmax on standard analysis, subjects without visible uptake on Patlak analysis ([1]; comparison p=0.08): 1.19±0.03 | TBRmax on standard analysis, subjects with uptake present on Patlak analysis ([1]; n=7): 1.32±0.05 | Adverse events following administration [2]: No adverse events were reported | Average total radiation dose per participant [2]: 15 mSv | Non-specific binding on autoradiography (αvβ3 integrin receptors; carotid atheroma, ex vivo): no evidence of non-specific binding | 18F-fluciclatide uptake in regions of carotid endarterectomy specimen without visible atheroma (αvβ3 integrin receptors; ex vivo autoradiography, 1 kBq/mL, 60 min): did not demonstrate 18F-fluciclatide uptake | 18F-fluciclatide binding in carotid plaque on autoradiography (αvβ3 integrin receptors; ex vivo carotid sections bathed in 1 kBq/mL for 60 min, atheromatous regions): focal 18F-fluciclatide binding in regions of advanced atherosclerosis | Nature of ligand-receptor binding by Patlak modelling ([3]; 2-tissue irreversible Patlak model, t* 20 min, over the selected acquisition time): irreversible ligand-receptor binding | Blood pool clearance half-life ([3]; human, in vivo, iv): about 10 min | Time at which activity within aortic atheroma reaches plateau ([3]; in vivo): 40 to 70 min

fluciclatide [reference compound]
Blocking of 18F-fluciclatide binding by un-labelled fluciclatide (αvβ3 integrin receptors; un-labelled highly concentrated solution added to compete at αvβ3): effectively blocked
